Laboratory results as given in patent EP0044527A1, “Substituted derivatives of benzyl triesters of cyclic adenosin-3',5'-phosphate, method for their preparation and pharmaceutical compositions containing them” (priority 1980, dated 1982).
Read-outs that look alike come from different tables or passages of the source.

How the values were obtained:
[1] = system: Trachealspangen-Kette des Meerschweinchens; assay: Relaxation of spontaneously contracted tracheal ring chain in vitro, relative to (-)isoprenaline maximum; type: cell-based, Meerschweinchen; details: for EC50: Cavia porcellus, Dosis der halbmaximal möglichen Relaxation, Relaxation relative to (-)Isoprenalin 10^-6 Mol/l, read-out: ED50 (the source's name); for Relative Wirkungsstärke (Theophyllin = 1,00): im Vergleich zu Theophyllin
Description: Weiterhin wurde die relaxierende Wirkung erfindungsgemäßer Verbindungen auf die Trachealspangen-Kette des Meerschweinchens in vitro geprüft: • Vier parallele, aus jeweils 6 Einzelringen bestehende Trachealspangen-Ketten des Meerschweinchens (♂ und $, 430 - 600 g) im Organbad (5 ml, Krebs-Henseleit-Lösung mit Zusatz von Phentolamin (10^-5 Mol/l, 37°C, Vorspannung der Organe 2 g, Begasung mit Carbogen) entwickeln nach etwa 20 bis 30 Minuten eine stabile, tonische Spontankontraktur. An diesen dauerkontrahierten Organen kann unter isometrischen Meßbedingungen durch Applikation der Prüfsubstanz in kumulativhalblogarithmisch ansteigender Konzentration (z.B. 1x10-^6 + 2x-10^-6 + 7x10^-6 + 2x10^-5 usw. Mol/l) eine Relaxation herbeigeführt werden, wobei nach jeder Einzeldosis der Testsubstanz eine konstante Relaxations-Antwort abgewartet wird, bevor die nächst höhere Konzentration appliziert wird. Ober einen Zeitraum von 20 bis 30 Minuten wird somit eine vollständige Dosis-Wirkungskurve der Testsubstanz erhalten. Die jeweilige Relaxation wird als Prozentbruchteil der durch Gabe von (-)Isoprenalin (10^-6 Mol/1) maximal erreichbaren Relaxation ausgedrückt.
In Tabelle IV sind die ED50 (Dosis der halbmaximal möglichen Relaxation) und die relative Wirkungsstärke im Vergleich zu Theophyllin für erfindungsgemäße Verbindungen angegeben.

[2] = Partition coefficient octanol/buffer pH 7.4 (lg P); type: physicochemical; details: Octanol/Puffer
Text: Weitere physikalische Daten finden sich in der folgenden Tabelle I, die auch zusätzliche beispielhaft hergestellte erfindungsgemäße Verbindungen und deren physikalische Daten enthält. Dabei bedeutet P den Verteilungskoeffizienten Octanol/Puffer, pH 7,4: P = [formula]

[3] = system: Papillarmuskeln aus dem rechten Ventrikel des Meerschweinchenherzens; assay: Positive inotropic effect on isolated papillary muscle, isometric force, with or without phosphodiesterase inhibitor; type: cell-based, Meerschweinchen; details: for minimal effective concentration: read-out: Schwellenkonz.
Description: Zur Bestimmung positiv inotroper Wirkungen wurden Papillarmuskeln aus dem rechten Ventrikel des Meerschweinchenherzens verwendet. Die adrenergen Nervenendigungen waren frei von Noradrenalin (Katecholamin-Entspeicherung durch intraperitoneale Injektion von 5 mg/kg Reserpin 24 Stunden vor Präparation der Tiere). Die Aufhängung der Muskeln erfolgte an einem induktiven Kraftaufnehmer in einer mit Sauerstoff gesättigten physiologischen Nährlösung (Volumen 50 ml). Die Kraftregistrierung erfolgte isometrisch, Kontraktionskurven wurden mittels eines Tintenschreibers aufgezeichnet und dann analysiert. Vor Zugabe der Testsubstanz wurden die Muskeln bei konstanter Reizung (Frequenz 0,2 Hz, Reizdauer 1 ms) bis zum Erreichen eines stationären Zustands ("steady state") der Kraft in der Nährlösung äquilibriert. Die Konzentration der Testsubstanz wurde dann erhöht, wenn die Kraft innerhalb von 10 min nicht weiter zunahm.
In der folgenden Tabelle II sind die Konzentrationen der einzelnen Testsubstanzen aufgetragen, bei denen der positiv inotrope Effekt gerade erkennbar war (Schwellenkonzentration) oder 50 % der maximalen Kraftzunahme erreichte (EC50). Diese Werte wurden im unteren Teil der Tabelle denen bereits bekannter Testsubstanzen gegenübergestellt. Weiterhin werden Schwellenkonzentrationen und EC50-Werte für die aufgeführten Testsubstanzen in Anwesenheit des Phosphodiesterase-Hemmstoffs 1-Methyl-3-isobutylxanthin (IBMX) (2 x 10^-5 Mol/l) angegeben. Es resultiert eine Verschiebung zu 30 - 40-fach niedrigeren Konzentrationen im Vergleich zu den Werten ohne Phophodiesterase-Hemmstoff. Ein ähnlicher Synergismus wurde auch mit Papaverin (1 x 10^-5 Mol/l) und mit Theophyllin (3 x 10-^4 Mol/1) beobachtet.

[4] = system: isolierte Trachealstreifen des Meerschweinchens; assay: Relaxation of isolated tracheal strips (smooth muscle of the respiratory tract); type: cell-based, Meerschweinchen; details: Cavia porcellus, read-out: Abnahme der Muskelspannung (T) in % des Kontrollwertes
Text: Zur Bestimmung der erschlaffenden Wirkung von 8-CH3S-cAMP-OCH2C6H5 (Verbindung 2) auf die glatte Muskulatur des Respirationstraktes wurden isolierte Trachealstreifen des Meerschweinchens verwendet. Aufhängung der Präparate erfolgte wie bereits beschrieben. Nach Vorgabe einer geeigneten Testspannung (0,8 g) wurde die erschlaffende Wirkung der Testsubstanz in Abhängigkeit von der Konzentration getestet. Nach Auswaschen der Testsubstanz wurde der Versuch mit einem bereits bekannten cAMP-Derivat (Dibutyryl-cAMP, Vergleichsverbindung 1) wiederholt.

[5] = system: isoliertes Meerschweinchen-Myokard; details: Stand der Technik; cited from earlier work
[6] = pH 7, Diastereomerengemisch, pH 7,4, read-out: lg P Gemisch
[7] = pH 7, Konfig. ax, pH 7,4, read-out: lg P
[8] = pH 7, Konfig. äq, pH 7,4, read-out: lg P
[9] = 50 % der maximalen Kraftzunahme, in Anwesenheit von IBMX (2 x 10^-5 Mol/l), read-out: EC50 + 20 µMol IBMX
[10] = 50 % der maximalen Kraftzunahme, ohne IBMX, read-out: EC50
[11] = positiv inotroper Effekt gerade erkennbar, in Anwesenheit von IBMX (2 x 10^-5 Mol/l)
[12] = positiv inotroper Effekt gerade erkennbar, ohne IBMX
[13] = pH 7, Vergleichsverbindungen, pH 7,4, read-out: lg P - Werte

Row | SMILES | logD [2, 6] | logD [2, 7] | logD [2, 8] | EC50 [3, 9] [µM] | EC50 [3, 10] [µM] | Schwellenkonz. + 20 µMol IBMX [3, 11] [mol/L] | minimal effective concentration [3, 12] [µM] | also measured
1 | Cn1c(=O)c2[nH]cnc2n(C)c1=O [Theophyllin, reference compound] | – | – | – | – | – | – | – | EC50 [1]: 130 µM; Relative Wirkungsstärke (Theophyllin = 1,00) [1]: 1,00
2 | Nc1ncnc2c1nc(Br)n2[C@@H]1O[C@@H]2COP(=O)(OCc3ccccc3)O[C@H]2[C@H]1O (some centres unmarked) [Verbindung 1, 8-Brom-adenosin-3',5'-monophosphorsäurebenzylester] | 1.58 | 1.61 | 1.54 | 1.5 | 10 | 3e-07 | 3 | EC50 [1]: 7 µM; Relative Wirkungsstärke (Theophyllin = 1,00) [1]: 18,5
3 | CSc1nc2c(N)ncnc2n1[C@@H]1O[C@@H]2COP(=O)(OCc3ccccc3)O[C@H]2[C@H]1O (some centres unmarked) [Verbindung 2, 8-Methylthio-adenosin-3',5^1-monophosphorsäurebenzylester] | 1.62 | 1.55 | 1.7 | – | – | 1e-07 | – | EC50 [3]: 10 µM; EC50 ([3]; read-out: EC50 + 20 µMol IBMX): 0.45 µM; minimal effective concentration [3]: 3 µM; inhibition at 1 µM [4]: 20%; inhibition at 3 µM [4]: 85%; inhibition at 10 µM [4]: 100%; inhibition at 30 µM [4]: 100%
4 | Nc1ncnc2c1nc(SCc1ccccc1)n2[C@@H]1O[C@@H]2COP(=O)(OCc3ccccc3)O[C@H]2[C@H]1O (some centres unmarked) [Verbindung 3, 8-Benzylthioadenosin-3',5'-monophosphorsäurebenzyltriester] | 1.92 | 1.96 | 1.88 | 0.6 | 20 | 1e-07 | 10 | –
5 | Nc1ncnc2c1nc([Se]Cc1ccccc1)n2[C@@H]1O[C@@H]2COP(=O)(OCc3ccccc3)O[C@H]2[C@H]1O (some centres unmarked) [Verbindung 4, 8-Benzylseleno-adenosin-3',5'-monophosphorsäurebenzylester] | 1.67 | 1.7 | 1.64 | – | – | 1e-07 | – | EC50 [3]: 10 µM; EC50 ([3]; read-out: EC50 + 20 µMol IBMX): 0.55 µM; minimal effective concentration [3]: 3 µM
6 | Nc1ncnc2c1nc(Sc1ccc(Cl)cc1)n2[C@@H]1O[C@@H]2COP(=O)(OCc3ccccc3)O[C@H]2[C@H]1O (some centres unmarked) [Verbindung 5, 8-(4-Chlor-phenylthio)-adenosin-3',5'-monophosphorsäurebenzylester] | 2.24 | – | – | 0.3 | 2 | 3e-08 | 0.1 | EC50 [1]: 38 µM; Relative Wirkungsstärke (Theophyllin = 1,00) [1]: 3,4
7 | Nc1ncnc2c1nc(NCc1ccccc1)n2[C@@H]1O[C@@H]2COP(=O)(OCc3ccccc3)O[C@H]2[C@H]1O (some centres unmarked) [Verbindung 6, 8-Benzylamino-adenosin-3^1,5^1-monophosphorsäurebenzylester] | 1.97 | – | – | 20 | 40 | 5e-06 | 10 | –
8 | CN(Cc1ccccc1)c1nc2c(N)ncnc2n1[C@@H]1O[C@@H]2COP(=O)(OCc3ccccc3)O[C@H]2[C@H]1O (some centres unmarked) [Verbindung 7, 8-N-Benzyl-N-methylamino-adenosin-3',5'-monophosphorsäurebenzylester] | 2.29 | – | – | – | – | – | – | –
9 | CCCC(=O)Nc1ncnc2c1ncn2[C@@H]1O[C@@H]2COP(=O)(O)O[C@H]2[C@H]1OC(=O)CCC [Vergleichs-verbindung 1, Dibutyryl-cAMP, reference compound] | – | – | – | 300 | 1000 | 0.0001 | 300 | logD [2, 13]: -1.1; inotrope Wirkung (Nebenwirkung) [5]: anfangs negativ inotrope Wirkungen; inhibition at 1000 µM ([4]; 1 x 10^-3 Mol/l): 75%; inhibition at 100 µM ([4]; 1 x 10^-4 Mol/l): 8%; inhibition at 300 µM ([4]; 3 x 10^-4 Mol/l): 16%
10 | Nc1ncnc2c1nc(SCc1ccccc1)n2[C@@H]1O[C@@H]2COP(=O)(O)O[C@H]2[C@H]1O [compound 2, 8-Benzylthioadenosin-3',5'-phosphorsäure, reference compound] | – | – | – | 150 | 800 | 1e-05 | 100 | logD [2, 13]: -1.15
11 | Nc1ncnc2c1ncn2[C@@H]1O[C@@H]2COP(=O)(OCc3ccccc3)O[C@H]2[C@H]1O (some centres unmarked) [compound 3, Adenosin-3',5'-phosphorsäurebenzylester, reference compound] | – | – | – | 60 | 250 | 1e-05 | 100 | logD [2, 13]: 1.1
